Measurements from article PMC9696794, “Synthesis and Antimicrobial Activity of Short Analogues of the Marine Antimicrobial Peptide Turgencin A: Effects of SAR Optimizations, Cys-Cys Cyclization and Lipopeptide Modifications” (International Journal of Molecular Sciences, 2022).
Where a SMILES comes first, the peptide text is derived from it. The star is where a group is joined. Lauroyl = CCCCCCCCCCCC(=O)*; Decanoyl = CCCCCCCCCC(=O)*; Octanoyl = CCCCCCCC(=O)*

Columns and labels:
[1] = tested on: B. subtilis (Bs, ATCC 23857); assay: microbe, parasite or virus in culture; type: cell-based, Bacillus subtilis; conditions: ATCC 23857, 24 h
Description: (§1) All cyclic and linear peptides were screened for antibacterial activity against four Gram-positive strains: B. subtilis (Bs, ATCC 23857), C. glutamicum (Cg, ATCC 13032), S. aureus (Sa, ATCC 9144) and S. epidermidis RP62A (Se, ATCC 35984), and two Gram-negative strains: E. coli (Ec, ATCC 25922) and P. aeruginosa (Pa, ATCC 27853). The activity was assessed using a broth microdilution assay according to a modified CLSI-based method. Briefly, overnight bacterial cultures were grown in Mueller–Hinton (MH) broth medium (Difco Laboratories, Detroit, MI, USA) for 2 h at room temperature. The optical density (OD600) was measured, and the bacterial suspensions were adjusted to 2.5–3 × 10^4 CFU/mL in MH medium. The bacterial suspension (50 µL) was distributed in 96-well plates (Nunc, Roskilde, Denmark) preloaded with two-fold dilution series (256 to 1 µg/mL) of peptide solutions (50 µL), giving a final well volume of 100 µL. The microplates were incubated in an EnVision 2103 microplate reader (PerkinElmer, Llantrisant, UK) at 35 °C, with OD595 recorded every hour for 24 h. MIC was defined as the lowest concentration of peptides showing an optical density less than 10% of the negative (growth) control, consisting of bacterial suspension and water. Polymyxin B sulfate (Sigma-Aldrich, St. Louis, MO, USA) and chlorhexidine acetate (CHX, Fresenius Kabi, Halden, Norway), both with concentrations ranging from 12.5 to 0.09 μg/mL, served as positive (growth inhibition) controls. All peptides were tested in triplicate.

[2] = tested on: C. glutamicum (Cg, ATCC 13032); assay: microbe, parasite or virus in culture; type: cell-based, Corynebacterium glutamicum; conditions: ATCC 13032, 24 h
Description: as §1

[3] = tested on: S. aureus (Sa, ATCC 9144); assay: microbe, parasite or virus in culture; type: cell-based, Staphylococcus aureus; conditions: ATCC 9144, 24 h
Description: as §1

[4] = tested on: S. epidermidis RP62A (Se, ATCC 35984); assay: microbe, parasite or virus in culture; type: cell-based, Staphylococcus epidermidis; conditions: ATCC 35984, 24 h
Description: as §1

E. coli (Ec, ATCC 25922) = assay: microbe, parasite or virus in culture; type: cell-based, Escherichia coli; conditions: ATCC 25922, 24 h
Description: as §1

[5] = tested on: P. aeruginosa (Pa, ATCC 27853); assay: microbe, parasite or virus in culture; type: cell-based, Pseudomonas aeruginosa; conditions: ATCC 27853, 24 h
Description: as §1

all bacterial strains = assay: Antibacterial MIC assay, all bacterial strains together (range or geometric mean); type: cell-based; conditions: for GM (geometric mean of the MIC values against all bacterial strains): Table 1, six bacterial strains; for GM of MIC Tot. bact.: Table S3, all bacterial test strains, MIC >256 set to 256
Description: The selectivity index (SI) of the peptides towards bacteria over eukaryotic cells was calculated using the geometric mean (GM) of the MIC values against all bacterial test strains, according to the method by Orlov et al.. The SI for each peptide was determined as the ratio of the RBC-EC50 value by the corresponding GM value. Larger SI values indicate greater selectivity for microbial cells. […] In general, the SI was higher against the Gram-positive bacteral strains than the Gram-negative strains. (Table S3). Overall, peptides displaying EC50 < 100 µg/mL were considered too haemolytic to be of interest for further exploration.
as §1

A. pullulans (Ap) = assay: microbe, parasite or virus in culture; type: cell-based, Aurobasidium pollulans; conditions: 48 h
Description: (§2) The synthesized peptides were screened for antifungal activity against the molds A. pullulans (Ap) and Rhodotorula sp. (Rh) (both obtained from Professor Arne Tronsmo, The Norwegian University of Life Sciences, Ås, Norway) and the yeast C. albicans (Ca, ATCC 10231) as previously described. In short, fungal spores were grown in potato dextrose broth media (Difco) containing 2% D(+)-glucose (Merck, Darmstadt, Germany) at 25–30 °C while shaking at 200 rpm overnight. The cultures were diluted with a dextrose media containing glucose to a concentration of approx. 4 × 10^5 spores/mL. Aliquots of the cultures (50 µL) were transferred to 96 well microtiter plates preloaded with the synthetic peptides (50 µL) in two-fold serial dilutions (256 to 1 µg/mL). Polymyxin B and CHX (both with concentrations ranging from 12.5 to 0.09 μg/mL) served as positive antibiotic controls. The microtiter plates containing the fungal spores and the test peptides were incubated at room temperature for 48 h and OD600 was recorded using a Synergy H1 Hybrid microplate reader system (BioTek, Winooski, VT, USA). MIC was defined as the lowest peptide concentration showing an optical density less than 10% of the negative (growth) control. All experiments were performed in triplicate.

[6] = tested on: C. albicans (Ca, ATCC 10231); assay: microbe, parasite or virus in culture; type: cell-based, Candida albicans; conditions: ATCC 10231, 48 h
Description: as §2

Rhodotorula sp. (Rh) = assay: microbe, parasite or virus in culture; type: cell-based; conditions: 48 h
Description: as §2

[7] = tested on: human red blood cells (RBC); assay: Haemolytic activity assay; type: cell-based; conditions: for Selectivity index (SI) G-: EC50/GM of Gram-negative strains; for Selectivity index (SI) G+: EC50/GM of Gram-positive strains; for Selectivity index (SI) Fungi: EC50/GM of fungi; for SI (selectivity index = EC50/GM): haemolytic EC50 over GM of MIC against all bacterial strains, Table 1; for RBC Tox. (EC50), haemolytic activity: human RBC, 1 h, 37 °C, concentration giving 50% haemolysis
Description: The synthetized lipopeptides were screened for haemolytic activity against human red blood cells (RBC), in concentrations ranging from 500 to 3.9 μM, following a previously described protocol. In brief, haemolysis was determined using a heparinizied (10 IU/mL) fraction of freshly drawn human blood. A second fraction of blood, which was collected in test tubes containing ethylenediaminetetraacetic acid (EDTA, Vacutest, KIMA, Arzergrande, Italy), was used for determination of the hematocrit (hct). Plasma was removed from heparinized blood by washing three times with prewarmed phosphate-buffered saline (PBS) before being adjusted to a hematocrit of 4%. Peptides dissolved in dimethyl sulfoxide (DMSO) were further diluted with PBS to a final DMSO content of ≤1%. Triton X-100 (Sigma-Aldrich, St. Louis, MO, USA), used at a final concentration of 0.1%, served as a positive control for 100% haemolysis, whereas 1% DMSO in PBS buffer served as a negative control where no toxicity was detected. Duplicates of test solutions and erythrocytes, with 1% hct final concentration, were prepared in a 96-well polypropylene V-bottom plate (Nunc, Fischer scientific, Oslo, Norway). They were incubated under agitation at 37 °C and 800 rpm for 1 h. After centrifugation (5 min, 3000× g), 100 µL from each well were transferred to a flat-bottomed 96-well plate and absorbance was measured at 545 nm with a microplate reader (SpectraMax 190, Molecular Devices, San Jose, CA, USA). After subtracting PBS background, the percentage of haemolysis was calculated as the ratio of the absorbance in the peptide-treated and surfactant-treated samples. Three independent experiments were performed, and EC50 (the concentration giving 50% haemolysis) values are presented as averages.

[8] = tested on: Gram-positive bacterial strains; conditions: for GM of MIC G+: Table S3, MIC >256 set to 256
Description: as §1

[9] = tested on: Gram-negative bacterial strains (E. coli and P. aeruginosa); assay: Antibacterial MIC assay, Gram-negative strains together (range or geometric mean); type: cell-based; conditions: Table S3; MIC >256 set to 256
Description: as §1

[10] = tested on: fungi (A. pullulans, C. albicans, Rhodotorula sp.); assay: Antifungal MIC assay, all fungi together (range or geometric mean); type: cell-based; conditions: Table S3; MIC >128 set to 128
Description: as §2

[11] = Table S3, highest tested concentration used where EC50 above it

Row | Compound | Antimicrobial Activity (MIC) Gram + Bs [1] [µg/mL] | Antimicrobial Activity (MIC) Gram + Cg [2] [µg/mL] | Antimicrobial Activity (MIC) Gram + Sa [3] [µg/mL] | Antimicrobial Activity (MIC) Gram + Se [4] [µg/mL] | Antimicrobial Activity (MIC) Gram − Ec (E. coli (Ec, ATCC 25922)) [µg/mL] | Antimicrobial Activity (MIC) Gram − Pa [5] [µg/mL] | GM (geometric mean of the MIC values against all bacterial strains) (all bacterial strains) [µg/mL] | GM of MIC Tot. bact. (all bacterial strains) [µg/mL] | Antimicrobial Activity (MIC) Fungi Ap (A. pullulans (Ap)) [µg/mL] | Antimicrobial Activity (MIC) Fungi Ca [6] [µg/mL] | Antimicrobial Activity (MIC) Fungi Rh (Rhodotorula sp. (Rh)) [µg/mL] | Selectivity index (SI) G- [7, 11] | Selectivity index (SI) G+ [7, 11] | Selectivity index (SI) Fungi [7, 11] | SI (selectivity index = EC50/GM) [7] | RBC Tox. (EC50), haemolytic activity [7] [µg/mL] | GM of MIC G+ [8] [µg/mL] | GM of MIC G- [9] [µg/mL] | GM of MIC Fungi [10] [µg/mL] | other results
1 | CCCCCCCC(=O)N[C@@H](CS)C(=O)NCC(=O)N[C@@H](CCCCN)C(=O)N[C@@H](CCCCN)C(=O)N1CCC[C@H]1C(=O)NCC(=O)NCC(=O)N[C@@H](Cc1c[nH]c2ccccc12)C(=O)N[C@@H](CCCCN)C(=O)N[C@@H](CS)C(=O)N[C@@H](CCCCN)C(=O)N[C@@H](CC(C)C)C(N)=O [Peptide C8-Turg-1, C8- CGKKPGGWKC KL-NH2] (Octanoyl-CGKKPGGWKCKL-NH2) | 8 | 4 | 128 | 32 | 32 | 128 | 29 | 29 | 32 | 128 | 16 | > 15 | > 50 | > 23 | >33 | >943 | 19 | 64 | 40 | 
2 | CCCCCCCC(=O)N[C@@H](CS)C(=O)NCC(=O)N[C@@H](CCCCN)C(=O)N[C@@H](CCCCN)C(=O)N[C@@H](Cc1c[nH]c2ccccc12)C(=O)N[C@@H](Cc1c[nH]c2ccccc12)C(=O)NCC(=O)N[C@@H](Cc1c[nH]c2ccccc12)C(=O)N[C@@H](CCCCN)C(=O)N[C@@H](CS)C(=O)N[C@@H](CCCCN)C(=O)N[C@@H](CC(C)C)C(N)=O [Peptide C8-Turg-2, C8- CGKKWWGWKC KL-NH2] (Octanoyl-CGKKWWGWKCKL-NH2) | 8 | 4 | 8 | 8 | 16 | 16 | 9 | 9 | 32 | 64 | 32 | 12 | 29 | 5 | 22 | 198 | 7 | 16 | 40 | MIC against the Gram-positive bacterial strains ([8]; 2 h): 4 to 8 µg/mL
3 | CCCCCCCCCC(=O)N[C@@H](CS)C(=O)NCC(=O)N[C@@H](CCCNC(=N)N)C(=O)N[C@@H](CCCNC(=N)N)C(=O)N[C@@H](Cc1c[nH]c2ccccc12)C(=O)NCC(=O)N[C@@H](Cc1c[nH]c2ccccc12)C(=O)N[C@@H](Cc1c[nH]c2ccccc12)C(=O)N[C@@H](CCCNC(=N)N)C(=O)N[C@@H](CS)C(=O)N[C@@H](CCCNC(=N)N)C(=O)N[C@@H](CC(C)C)C(N)=O [Peptide C10-Turg-6, C10- CGRRWGWWRC RL-NH2] (Decanoyl-CGRRWGWWRCRL-NH2) | 8 | 16 |  | 16 |  |  | 23 | 23 | 128 | 64 | 128 |  | 1 |  |  | 21 | 16 | 45 | 102 | Selectivity index (SI) Tot. bact. ([7]; Table S3, EC50/GM of all bacterial strains, highest tested concentration used where EC50 above it): 1
4 | CCCCCCCCCCCC(=O)N[C@@H](CS)C(=O)NCC(=O)N[C@@H](CCCNC(=N)N)C(=O)N[C@@H](CCCNC(=N)N)C(=O)N[C@@H](Cc1c[nH]c2ccccc12)C(=O)NCC(=O)N[C@@H](Cc1c[nH]c2ccccc12)C(=O)N[C@@H](Cc1c[nH]c2ccccc12)C(=O)N[C@@H](CCCNC(=N)N)C(=O)N[C@@H](CS)C(=O)N[C@@H](CCCNC(=N)N)C(=O)N[C@@H](CC(C)C)C(N)=O [Peptide C12-Turg-6, C12- CGRRWGWWRC RL-NH2] (Lauroyl-CGRRWGWWRCRL-NH2) | 16 | 16 |  | 16 |  |  | 32 | 32 | 128 | 64 | >128 |  | 2 |  | 1 | 39 | 19 |  |  | 
